Experimental data: patent US20240116985A1, “STAPLED PEPTIDES AND METHODS THEREOF” (priority 2020, published 2024)
pIC50: −log10 of the molar value. Where two headings read alike, the source gives them in different places.

Key:
[1] = molecular target: T1, full-length beta-Catenin (Uniprot ID P35222) (Homo sapiens, UniProt P35222); experiment: Fluorescence polarization IC50 (beta-catenin / 5FAM-TCF4 10-53 competition); format: binding; conditions: fluorescence polarization; read-out: beta-Catenin FP IC50
T1 construct: 10 nM full-length beta-Catenin (Uniprot ID P35222)
T1 sequence (P35222 1-781): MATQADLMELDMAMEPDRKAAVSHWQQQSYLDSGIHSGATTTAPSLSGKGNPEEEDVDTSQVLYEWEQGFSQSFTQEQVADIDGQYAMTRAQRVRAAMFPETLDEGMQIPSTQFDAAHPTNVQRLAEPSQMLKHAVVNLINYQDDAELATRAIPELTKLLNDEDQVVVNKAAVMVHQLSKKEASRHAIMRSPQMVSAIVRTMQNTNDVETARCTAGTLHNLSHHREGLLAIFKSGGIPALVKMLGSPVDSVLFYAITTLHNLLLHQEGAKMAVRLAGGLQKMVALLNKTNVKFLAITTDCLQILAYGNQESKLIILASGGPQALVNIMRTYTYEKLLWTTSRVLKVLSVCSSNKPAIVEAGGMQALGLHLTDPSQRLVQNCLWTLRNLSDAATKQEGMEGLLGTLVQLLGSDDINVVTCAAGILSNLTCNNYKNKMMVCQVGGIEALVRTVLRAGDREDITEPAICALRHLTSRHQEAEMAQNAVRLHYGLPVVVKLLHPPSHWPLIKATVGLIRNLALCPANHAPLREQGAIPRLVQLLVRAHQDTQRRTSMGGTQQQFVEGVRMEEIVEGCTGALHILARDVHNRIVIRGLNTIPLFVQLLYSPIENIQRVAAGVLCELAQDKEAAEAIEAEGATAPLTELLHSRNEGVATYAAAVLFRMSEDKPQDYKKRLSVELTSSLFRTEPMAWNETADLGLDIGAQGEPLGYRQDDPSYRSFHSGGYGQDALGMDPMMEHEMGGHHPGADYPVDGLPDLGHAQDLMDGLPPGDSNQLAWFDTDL

[2] = molecular target: T2, beta-catenin/TCF4 engagement (Homo sapiens, UniProt P35222); experiment: Nano-BRET target engagement assay (B-cat-Halo & TCF4-Luc in HEK293 cells); format: cell-based; conditions: read-out: NanoBRET Abs IC50
T2 construct: expressed in transfected cells; host or cells: HEK293
T2 sequence (P35222 1-781): T1 sequence (P35222 1-781)

[3] = test system: TCF/LEF luciferase Reporter in DLD1 cells; experiment: TCF reporter assay (DLD1 TCF/LEF luciferase reporter, Bright-Glo); format: cell-based; conditions: read-out: DLD1 4% Abs IC50
In short: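 DLD1 cells stably carrying a TCF/LEF luciferase reporter were plated at 5000 cells/well in RPMI + 4% FBS and treated overnight with a 1:2 compound dilution series. Bright-Glo luminescence read on day 3; viability by CellTiter-Glo. Absolute IC50 determined.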

[4] = DLD1 reporter assay, 4%, absolute IC50
[5] = DLD1 reporter, 4%, absolute IC50

pIC50 [1]	pIC50 ([2]; absolute IC50)	pIC50 [3, 4]	pIC50 [2]	pIC50 ([3]; DLD1 4%)	pIC50 [3, 5]	Compound
7.62	5.32	5.57	–	–	–	CC(=O)N1CCC[C@]12CC=CCCCC1(CCCC=CCCCOC(=O)N3CC[C@@](C(=O)N[C@@H](Cc4ccsc4)C(=O)N[C@@H](Cc4csc5ccccc45)C(=O)N[C@H](C(N)=O)[C@@H](C)O)(C3)NC(=O)[C@H](CC(C)C)NC(=O)[C@H](Cc3ccccc3)NC(=O)[C@H](C)NC(=O)[C@H](C)NC(=O)[C@H](CN(CC(=O)O)CC(F)(F)F)NC(=O)[C@H](CC(=O)O)NC1=O)NC(=O)[C@H](CC(C)(C)C)NC(=O)[C@H](CC(=O)O)NC2=O (stereo partly drawn) [I-1706, Ac-PL3-Asp-Npg-B5-Asp-TfeGA-Ala-Ala-Phe-Leu-PyrS2-3Thi-BztA-Thr-NH2]
7.64	5.46	5.89	–	–	–	CCCC[C@@H]1NC(=O)[C@H](Cc2cccc(C(=O)O)c2)NC(=O)[C@H](CC(=O)O)NC(=O)C2(CCCC=CCCCOC(=O)N3CC[C@@](C(=O)N[C@@H](Cc4ccccc4Cl)C(=O)N[C@@H](Cc4csc5ccccc45)C(=O)N[C@@H](CCC(N)=O)C(N)=O)(C3)NC(=O)[C@H](CC(C)C)NC(=O)[C@H](Cc3ccccc3)NC(=O)[C@H](C)NC1=O)CCCC=CC[C@]1(CCCN1C(C)=O)C(=O)N[C@@H](CC(=O)O)C(=O)N[C@@H](CC(C)(C)C)C(=O)N2 (stereo partly drawn) [I-1685, Ac-PL3-Asp-Npg-B5-Asp-3COOHF-nLeu-Ala-Phe-Leu-PyrS2-2C1F-BztA-Gln-NH2]
8.05	–	–	4.91	5.24	–	CC(=O)N1CCC[C@]12CC=CCCCC1(CCCC=CCCCOC(=O)N3CC[C@@](C(=O)N[C@@H](Cc4ccsc4)C(=O)N[C@@H](Cc4csc5ccccc45)C(=O)N[C@@H](CCC(N)=O)C(N)=O)(C3)NC(=O)[C@H](CC(C)C)NC(=O)[C@H](Cc3ccccc3)NC(=O)[C@H](C)NC(=O)[C@H](C)NC(=O)[C@H](CCn3cc(CC(C)(C)C(=O)O)nn3)NC(=O)[C@H](CC(=O)O)NC1=O)NC(=O)[C@H](CC(C)(C)C)NC(=O)[C@H](CC(=O)O)NC2=O (stereo partly drawn) [I-2077, Ac-PL3-Asp-Npg-B5-Asp-[CH2CMe2CO2H]TriAzDab-Ala-Ala-Phe-Leu-PyrS2-3Thi-BztA-Gln-NH2]
7.35	4.67	–	–	–	5.40	CC(=O)N1CCC[C@]12CC=CCCCC1(CCCC=CCCCOC(=O)N3CC[C@@](C(=O)N[C@@H](Cc4ccsc4)C(=O)N[C@@H](Cc4csc5ccccc45)C(=O)N[C@H](CO)[C@@H](C)O)(C3)NC(=O)[C@H](CC(C)C)NC(=O)[C@H](Cc3ccccc3)NC(=O)[C@H](C)NC(=O)[C@H](C)NC(=O)[C@H](CC(=O)O)NC(=O)[C@H](CC(=O)O)NC1=O)NC(=O)[C@H](CC(C)(C)C)NC(=O)[C@H](CC(=O)O)NC2=O (stereo partly drawn) [I-1302, Ac-PL3-Asp-Npg-B5-Asp-Asp-Ala-Ala-Phe-Leu-PyrS2-3Thi-BztA-Thro1]
7.34	< 4.70	–	–	–	< 4.70	CC(=O)N1CCC[C@]12CC=CCCCC1(CCCC=CCCCOC(=O)N3CC[C@@](C(=O)N[C@@H](Cc4ccccc4)C(=O)N[C@@H](Cc4csc5ccccc45)C(=O)N[C@@H](CC(=O)N4CCOCC4)C(N)=O)(C3)NC(=O)[C@H](CC(C)C)NC(=O)[C@H](Cc3ccccc3)NC(=O)[C@H](C)NC(=O)[C@H](CCCCNC(C)C)NC(=O)[C@H](CCC(N)=O)NC(=O)[C@H](CC(=O)O)NC1=O)NC(=O)[C@H](CC1CCCCC1)NC(=O)[C@H](CC(N)=O)NC2=O (stereo partly drawn) [I-2426, Ac-PL3-Asn-Cha-B5-Asp-Gln-iPrLys-Ala-Phe-Leu-PyrS2-Phe-BztA-MorphAsn-NH2]
8.00	5.19	5.59	–	–	–	CC(=O)N1CCC[C@]12CC=CCCCC1(CCCC=CCCCOC(=O)N3CC[C@@](C(=O)N[C@@H](Cc4ccsc4)C(=O)N[C@@H](Cc4csc5ccccc45)C(=O)N[C@@H](CCC(N)=O)C(N)=O)(C3)NC(=O)[C@H](CC(C)C)NC(=O)[C@H](Cc3ccccc3)NC(=O)[C@H](C)NC(=O)[C@H](C)NC(=O)[C@H](CN(CC(=O)O)Cc3c(F)c(F)c(F)c(F)c3F)NC(=O)[C@H](CC(=O)O)NC1=O)NC(=O)[C@H](CC(C)(C)C)NC(=O)[C@H](CC(=O)O)NC2=O (stereo partly drawn) [I-1632, Ac-PL3-Asp-Npg-B5-Asp-[Pfbn]GA-Ala-Ala-Phe-Leu-PyrS2-3Thi-BztA-Gln-NH2]
7.55	5.44	–	–	–	5.89	CC(=O)N1CCC[C@]12CC=CCCCC1(CCCC=CCCCOC(=O)N3CC[C@@](C(=O)N[C@@H](Cc4ccccc4C(F)(F)F)C(=O)N[C@@H](Cc4csc5ccccc45)C(=O)N[C@@H](CCC(N)=O)C(=O)N[C@@H](CC(C)C)C(=O)N[C@H](CCC(N)=O)C(N)=O)(C3)NC(=O)[C@H](CC(C)C)NC(=O)[C@H](Cc3ccccc3)NC(=O)[C@H](C)NC(=O)[C@H](C)NC(=O)[C@H](Cc3cccc(C(=O)O)c3)NC(=O)[C@H](CC(=O)O)NC1=O)NC(=O)[C@H](CC(C)(C)C)NC(=O)[C@H](CC(=O)O)NC2=O (stereo partly drawn) [I-2398, Ac-PL3-Asp-Npg-B5-Asp-3COOHF-Ala-Ala-Phe-Leu-PyrS2-2F3MeF-BztA-Gln-Leu-dGln-NH2]
8.00	5.28	5.40	–	–	–	CC(=O)N1CCC[C@]12CC=CCCCC1(CCCC=CCCCOC(=O)N3CC[C@@](C(=O)N[C@@H](Cc4ccccc4C(F)(F)F)C(=O)N[C@@H](Cc4csc5ccccc45)C(=O)N[C@@H](CC(=O)N4CCN(C)CC4)C(N)=O)(C3)NC(=O)[C@H](CC(C)C)NC(=O)[C@H](Cc3ccccc3)NC(=O)[C@H](C)NC(=O)[C@H](C)NC(=O)[C@H](Cc3cccc(C(=O)O)c3)NC(=O)[C@H](CC(=O)O)NC1=O)NC(=O)[C@H](CC(C)(C)C)NC(=O)[C@H](CC(=O)O)NC2=O (stereo partly drawn) [I-1612, Ac-PL3-Asp-Npg-B5-Asp-3COOHF-Ala-Ala-Phe-Leu-PyrS2-2F3MeF-BztA-MePpzAsn-NH2]
7.57	5.23	–	–	–	5.24	CC(=O)N1CCC[C@]12CC=CCCCC1(CCCC=CCCCOC(=O)N3CC[C@@](C(=O)N[C@@H](Cc4ccccc4C(F)(F)F)C(=O)N[C@@H](Cc4csc5ccccc45)C(=O)N[C@@H](C)C(N)=O)(C3)NC(=O)[C@H](CC(C)C)NC(=O)[C@H](Cc3ccccc3)NC(=O)[C@H](C)NC(=O)[C@H](CCC(N)=O)NC(=O)[C@H](Cn3cc(CC4(C(=O)O)CCCCC4)nn3)NC(=O)[C@H](CC(=O)O)NC1=O)NC(=O)[C@H](CC(C)(C)C)NC(=O)[C@H](CC(=O)O)NC2=O (stereo partly drawn) [I-2520, Ac-PL3-Asp-Npg-B5-Asp-[CH2CChCO2H]TriAzDap-Gln-Ala-Phe-Leu-PyrS2-2F3MeF-BztA-Ala-NH2]
7.89	5.35	5.47	–	–	–	CC(=O)N1CCC[C@]12CC=CCCCC1(CCCC=CCCCOC(=O)N3CC[C@@](C(=O)N[C@@H](Cc4ccccc4Cl)C(=O)N[C@@H](Cc4csc5ccccc45)C(=O)N[C@@H](CCC(N)=O)C(N)=O)(C3)NC(=O)[C@H](CC(C)C)NC(=O)[C@H](Cc3ccccc3)NC(=O)[C@H](C)NC(=O)CNC(=O)[C@H](Cc3cccc(C(=O)O)c3)NC(=O)[C@H](CC(=O)O)NC1=O)NC(=O)[C@H](CC(C)(C)C)NC(=O)[C@H](CC(=O)O)NC2=O (stereo partly drawn) [I-1684, Ac-PL3-Asp-Npg-B5-Asp-3COOHF-Gly-Ala-Phe-Leu-PyrS2-2C1F-BztA-Gln-NH2]
8.30	–	–	5.04	5.01	–	CC(=O)N1CCC[C@]12CC=CCCCC1(CCCC=CCCCOC(=O)N3CC[C@@](C(=O)N[C@@H](Cc4ccsc4)C(=O)N[C@@H](Cc4csc5ccccc45)C(=O)N[C@@H](CCC(N)=O)C(N)=O)(C3)NC(=O)[C@H](CC(C)C)NC(=O)[C@H](Cc3ccccc3)NC(=O)[C@H](C)NC(=O)[C@H](C)NC(=O)[C@H](Cn3cc(CC(=O)O)nn3)NC(=O)[C@H](CC(=O)O)NC1=O)NC(=O)[C@H](CC(C)(C)C)NC(=O)[C@H](CC(=O)O)NC2=O (stereo partly drawn) [I-2084, Ac-PL3-Asp-Npg-B5-Asp-[CH2CO2H]TriAzDap-Ala-Ala-Phe-Leu-PyrS2-3Thi-BztA-Gln-NH2]
7.21	< 4.70	–	–	–	5.25	CC(=O)N1CCC[C@]12CC=CCCCC1(CCCC=CCCCOC(=O)N3CC[C@@](C(=O)N[C@@H](Cc4ccccc4C(F)(F)F)C(=O)N[C@@H](Cc4csc5ccccc45)C(=O)N[C@@H](CCC(N)=O)C(=O)N[C@@H](CC(C)C)C(=O)N[C@@H](CCCNC(=N)N)C(N)=O)(C3)NC(=O)[C@H](CC(C)C)NC(=O)[C@H](Cc3ccccc3)NC(=O)[C@H](C)NC(=O)[C@H](C)NC(=O)[C@H](Cc3cccc(C(=O)O)c3)NC(=O)[C@H](CC(=O)O)NC1=O)NC(=O)[C@H](CC(C)(C)C)NC(=O)[C@H](CC(=O)O)NC2=O (stereo partly drawn) [I-2393, Ac-PL3-Asp-Npg-B5-Asp-3COOHF-Ala-Ala-Phe-Leu-PyrS2-2F3MeF-BztA-Gln-Leu-Arg-NH2]
